Laboratory results: ChEMBL document CHEMBL5052853, “Isoxazole derivatives targeting tacc3 as anticancer agents” (2021)
Calls of active or inactive are those of the source. The calls are words filed in the database; no cut-off is given here.

Columns and labels:
Assay type in all cases: functional, cell-based
[1] = test system: JIMT-1; experiment: Antiproliferative activity against human JIMT-1 cells after 72 hrs by SRB assay; conditions: JIMT-1, 72 h
[2] = test system: JIMT-1; experiment: Induction of apoptosis in human JIMT-1 cells at high concentration assessed as change in cleaved caspase-3 levels and measured by Western blot analysis
[3] = test system: JIMT-1; experiment: Induction of apoptosis in human JIMT-1 cells at high concentration assessed as change in cleaved PARP levels and measured by Western blot analysis
[4] = test system: JIMT-1; experiment: Induction of mitotic arrest in human JIMT-1 cells at high concentration assessed as change in p-histone H3 levels and measured by Western blot analysis
[5] = test system: RT-112; experiment: Antiproliferative activity against human RT-112 cells after 3 days by SRB assay; conditions: RT-112, 72 h
[6] = test system: MCF-12A; experiment: Antiproliferative activity against human MCF-12A cells
[7] = test system: JIMT-1; experiment: Induction of DNA damage in human JIMT-1 cells at high concentration assessed as change in p-H2AX levels and measured by Western blot analysis
[8] = test system: RT-4; experiment: Antiproliferative activity against human RT-4 cells after 3 days by SRB assay; conditions: RT-4, 72 h

Row | Structure (SMILES) | IC50 [1] [nM] | other results
1 | FC(F)(F)Oc1ccc(-c2cc(Nc3ccnc(N4CCOCC4)n3)on2)cc1 | > 10000 | –
2 | CCc1ccc(-c2cc(Nc3ccnc(N4CCOCC4)n3)on2)cc1 | 259 | –
3 | COc1ccc(-c2cc(Nc3ccnc(N4CCOCC4)n3)on2)cc1F | 13 | –
4 | COc1ccc(-c2cc(Nc3ccnc(N4C[C@H]5C[C@@H]4CO5)n3)on2)cc1 | 480 | –
5 | c1ccc(COc2ccc(-c3cc(Nc4ccnc(N5CCOCC5)n4)on3)cc2)cc1 | > 10000 | –
6 | COc1ccc(-c2cc(Nc3ccnc(N4CCC(C(F)(F)F)CC4)n3)on2)cc1 | 56 | –
7 | COc1ccc(-c2cc(Nc3ccnc(N4CCC(F)(F)CC4)n3)on2)cc1 | 370 | –
8 | COc1ccc(-c2cc(Nc3ccnc(N4CCOCC4)n3)on2)cc1OC | 730 | –
9 | COc1ccc(-c2cc(Nc3ccnc(N4CCC(C)CC4)n3)on2)cc1 | 204 | –
10 | CCOC(=O)C1CCN(c2nccc(Nc3cc(-c4ccc(OC)cc4)no3)n2)CC1 | > 10000 | –
11 | COc1ccc(-c2cc(Nc3nc(N4CCC(F)CC4)ncc3F)on2)cc1 | 540 | –
12 | COc1ccc(-c2cc(Nc3ccnc(N4CCN(CCO)CC4)n3)on2)cc1 | > 10000 | –
13 | COc1ccc(-c2cc(Nc3ccnc(N4CCCC4)n3)on2)cc1F | 49 | –
14 | CN(C)c1ccc(-c2cc(Nc3ccnc(N4CCOCC4)n3)on2)cc1 | 120 | –
15 | CC(C)c1ccc(-c2cc(Nc3ccnc(N4CCOCC4)n3)on2)cc1 | 3610 | –
16 | c1cc(Nc2cc(-c3ccc4c(c3)OCO4)no2)nc(N2CCOCC2)n1 | 870 | –
17 | CCCOc1ccc(-c2cc(Nc3ccnc(N4CCOCC4)n3)on2)cc1 | > 10000 | –
18 | COc1ccccc1-c1cc(Nc2ccnc(N3CCOCC3)n2)on1 | 8270 | –
19 | Oc1ccc(-c2cc(Nc3ccnc(N4CCOCC4)n3)on2)cc1 | > 10000 | –
20 | COc1ccc(-c2cc(Nc3ccnc(N4CCSCC4)n3)on2)cc1 | 113 | –
21 | COc1ccc(-c2cc(Nc3ccnc(N4CCC(F)CC4)n3)on2)cc1F | 145 | –
22 | COc1ccc(-c2cc(Nc3ccnc(N4CCC(NN5CCOCC5)CC4)n3)on2)cc1 | 800 | –
23 | COc1ccc(-c2cc(Nc3ccnc(N4CCC(CCO)CC4)n3)on2)cc1 | 3970 | –
24 | Clc1ccc(-c2cc(Nc3ccnc(N4CCOCC4)n3)on2)cc1 | > 10000 | –
25 | CN(C)c1ccc(-c2cc(Nc3ccnc(N4CCC(F)CC4)n3)on2)cc1 | 157 | –
26 | COc1ccc(-c2cc(Nc3ccnc(N4CCOCC4)n3)on2)cc1Cl | 480 | –

Row | Structure (SMILES) | IC50 [1] [nM] | other results
27 | CCN(Cc1ccncc1)Cc1c(O)ccc2c(-c3cc4ccccc4oc3=O)cc(=O)oc12 | – | Activity [2]: Active; Activity [3]: Active; Activity [4]: Active; IC50 [5]: 1.2 µM; IC50 [6]: > 10 µM; Activity [7]: Active; IC50 [8]: 5.25 µM
28 | COc1ccc(-c2cc(Nc3ccnc(N4C5CCC4COC5)n3)on2)cc1F | 53 | –
29 | COc1ccc(-c2cc(Nc3ccnc(N4CCOCC4)n3)on2)cn1 | 7300 | –
30 | COc1ccc(-c2cc(Nc3ccnc(N4C5CCC4COC5)n3)on2)cc1 | 160 | –
31 | COc1ccc(-c2cc(Nc3ccnc(N4CCNCC4)n3)on2)cc1 | > 10000 | –
32 | COc1ccc(-c2cc(Nc3ccnc(N4CCN(C)CC4)n3)on2)cc1 | 1560 | –
33 | COc1ccc(-c2cc(N(C)c3ccnc(N4CCOCC4)n3)on2)cc1 | 160 | –
34 | CC(C)CNc1ccnc(NCc2csc(-c3ccccc3)n2)n1 | – | Activity [2]: Active; Activity [3]: Active; Activity [4]: Active; IC50 [5]: 8.71 µM; IC50 [6]: > 10 µM; Activity [7]: Active; IC50 [8]: 7.07 µM
35 | FC(F)(F)c1ccc(-c2cc(Nc3ccnc(N4CCOCC4)n3)on2)cc1 | > 10000 | –
36 | Cc1ccc(-c2cc(Nc3ccnc(N4CCOCC4)n3)on2)cc1 | 640 | –
37 | COc1ccc(-c2cc(Nc3ccnc(N4C[C@@H]5C[C@H]4CO5)n3)on2)cc1 | 2020 | –
38 | COc1ccc(-c2cc(Nc3ccnc(N4CCC(F)CC4)n3)on2)cc1 | 130 | –
39 | CC(F)(F)c1ccc(-c2cc(Nc3ccnc(N4CCOCC4)n3)on2)cc1 | > 10000 | –
40 | CCOc1ccc(-c2cc(Nc3ccnc(N4CCOCC4)n3)on2)cc1 | 810 | –
41 | COc1ccc(-c2cc(Nc3ccnc(N4CCCCC4)n3)on2)cc1 | 116 | –
42 | Fc1ccc(-c2cc(Nc3ccnc(N4CCOCC4)n3)on2)cc1 | > 10000 | –
43 | c1ccc(-c2cc(Nc3ccnc(N4CCOCC4)n3)on2)cc1 | > 10000 | –
44 | COc1ccc(-c2cc(Nc3ccnc(N4C[C@@H](C)O[C@@H](C)C4)n3)on2)cc1 | 230 | –
45 | COc1ccc(-c2cc(Nc3ccnc(N4CCC(C(=O)O)CC4)n3)on2)cc1 | > 10000 | –
46 | COc1ccc(-c2cc(Nc3cc(C)nc(N4CCC(F)CC4)n3)on2)cc1 | 1000 | –
47 | COc1ccc(-c2cc(Nc3ccnc(N4CCS(=O)(=O)CC4)n3)on2)cc1 | > 10000 | –
48 | COc1cccc(-c2cc(Nc3ccnc(N4CCOCC4)n3)on2)c1 | 3440 | –
49 | CSc1ccc(-c2cc(Nc3ccnc(N4CCOCC4)n3)on2)cc1 | 30 | –
50 | COc1ccc(-c2cc(Nc3ccnc(N4CCCC4)n3)on2)cc1 | 105 | –
51 | COc1ccc(-c2cc(Nc3ccnc(N4CC5CCC(C4)O5)n3)on2)cc1 | 3090 | –
52 | FC(F)Oc1ccc(-c2cc(Nc3ccnc(N4CCOCC4)n3)on2)cc1 | 4230 | –
